Test results taken from US20090036420A1, “BENZAMIDE DERIVATIVES AND THEIR USE FOR TREATING CNS DISORDERS” (priority 2007, published 2009).
Read-outs that look alike come from different tables or passages of the source.

Molecular target: T1, TAAR1 (Mus musculus, UniProt Q923Y8)
T1 construct: expressed in transfected cells; host or cells: HEK293 cells (ATCC #CRL-1573), stably transfected with pIRESneo2 expression plasmid; membrane preparation
Test: Radioligand binding assay on membranes of HEK293 cells stably expressing TAAR1
Details: radioligand [3H]-rac-2-(1,2,3,4-tetrahydro-1-naphthyl)-2-imidazoline 60 nM, 4° C., 30 min
Protocol: The Expand High Fidelity PCR System (Roche Diagnostics) was used with 1.5 mM Mg^2+ and purified PCR products were cloned into pCR2.1-TOPO cloning vector (Invitrogen) following the instructions of the manufacturer. PCR products were subcloned into the pIRESneo2 vector (BD Clontech, Palo Alto, Calif.), and expression vectors were sequence verified before introduction in cell lines.
For the generation of stably transfected cell lines HEK293 cells were transfected with the pIRESneo2 expression plasmids containing the TAAR coding sequences (described above) with Lipofectamine 2000 (Invitrogen) according to the instructions of the manufacturer, and 24 hrs post transfection the culture medium was supplemented with 1 mg/ml G418 (Sigma, Buchs, Switzerland). After a culture period of about 10 d clones were isolated, expanded and tested for responsiveness to trace amines (all compounds purchased from Sigma) with the cAMP Biotrak Enzyme immunoassay (EIA) System (Amersham) following the non-acetylation EIA procedure provided by the manufacturer.
Cells at confluence were rinsed with ice-cold phosphate buffered saline without Ca^2+ and Mg^2+ containing 10 mM EDTA and pelleted by centrifugation at 1000 rpm for 5 min at 4° C. The pellet was then washed twice with ice-cold phosphate buffered saline and cell pellet was frozen immediately by immersion in liquid nitrogen and stored until use at −80° C. Cell pellet was then suspended in 20 ml HEPES-NaOH (20 mM), pH 7.4 containing 10 mM EDTA, and homogenized with a Polytron (PT 3000, Kinematica) at 10,000 rpm for 10 s. The homogenate was centrifuged at 48,000×g for 30 min at 4° C. and the pellet resuspended in 20 ml HEPES-NaOH (20 mM), pH 7.4 containing 0.1 mM EDTA (buffer A), and homogenized with a Polytron at 10,000 rpm for 10 s. The homogenate was then centrifuged at 48,000×g for 30 min at 4° C. and the pellet resuspended in 20 ml buffer A, and homogenized with a Polytron at 10,000 rpm for 10 s. Protein concentration was determined by the method of Pierce (Rockford, Ill.). […] Non-specific binding was defined as the amount of [^3H]-rac-2-(1,2,3,4-tetrahydro-1-naphthyl)-2-imidazoline bound in the presence of the appropriate unlabelled ligand (10 μM). Competing ligands were tested in a wide range of concentrations (10 pM-30 μM). […] Each experiment was performed in duplicate. All incubations were terminated by rapid filtration through UniFilter-96 plates (Packard Instrument Company) and glass filter GF/C, pre-soaked for at least 2 h in polyethylenimine 0.3%, and using a Filtermate 96 Cell Harvester (Packard Instrument Company). The tubes and filters were then washed 3 times with 1 ml aliquots of cold buffer B. Filters were not dried and soaked in Ultima gold (45 μl/well, Packard Instrument Company) and bound radioactivity was counted by a TopCount Microplate Scintillation Counter (Packard Instrument Company).

[1] = read-out: Ki value (μM) in mouse

T1 sequence (Q923Y8 whole entry): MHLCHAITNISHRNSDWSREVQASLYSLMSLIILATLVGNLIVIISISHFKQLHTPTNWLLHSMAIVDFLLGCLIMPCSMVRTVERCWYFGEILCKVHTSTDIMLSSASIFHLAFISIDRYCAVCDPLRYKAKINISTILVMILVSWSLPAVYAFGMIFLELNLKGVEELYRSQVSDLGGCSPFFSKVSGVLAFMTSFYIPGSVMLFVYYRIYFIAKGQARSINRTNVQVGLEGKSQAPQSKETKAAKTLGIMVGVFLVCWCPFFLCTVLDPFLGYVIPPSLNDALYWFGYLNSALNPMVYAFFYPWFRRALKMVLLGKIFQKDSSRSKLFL

SMILES	Ki [1]	Ki (Ki value (μM) in mouse)
COc1cccc(NC(=O)c2ccc(N3CCCC3)c([N+](=O)[O-])c2)c1 [Example 93, N-(3-Methoxy-phenyl)-3-nitro-4-pyrrolidin-1-yl-benzamide]	0.013 µM	
CC(C)c1cccc(NC(=O)c2ccc(N3CCCC3)c(C(F)(F)F)c2)c1 [Example 182, N-(3-Isopropyl-phenyl)-4-pyrrolidin-1-yl-3-trifluoro-methyl-benzamide]		0.065 µM
COc1cccc(NC(=O)c2ccc(N3CCC(C)CC3)c(C(F)(F)F)c2)c1 [Example 143, N-(3-Methoxy-phenyl)-4-(4-methyl-piperidin-1-yl)-3-trifluoromethyl-benzamide]	0.007 µM	
O=C(Nc1ccccc1)c1ccc(Cl)c(Cl)c1 [Example 319, 3,4-Dichloro-N-phenyl-benzamide]	0.0543 µM	
O=C(Nc1cccc(Cl)c1)c1ccc(Cl)c(Cl)c1 [Example 283, 3,4-Dichloro-N-(3-chloro-phenyl)-benzamide]	0.06 µM	
COc1cccc(NC(=O)c2ccc(N3CCC(C(F)(F)F)CC3)c(C(F)(F)F)c2)c1 [Example 197, N-(3-Methoxy-phenyl)-3-trifluoromethyl-4-(4-trifluoromethyl-piperidin-1-yl)-benzamide]	0.003 µM	
CC(=O)c1cccc(NC(=O)c2ccc(N3CCCC3)c(C(F)(F)F)c2)c1 [Example 184, N-(3-Acetyl-phenyl)-4-pyrrolidin-1-yl-3-tri-fluoromethyl-benzamide]	0.026 µM	
CCNc1ccc(C(=O)Nc2cccc(OC)c2)cc1[N+](=O)[O-] [Example 90, 4-Ethylamino-N-(3-methoxy-phenyl)-3-nitro-benzamide]	0.024 µM	
CCCNc1ccc(C(=O)Nc2cccc(OC)c2)cc1C(F)(F)F [Example 144, N-(3-Methoxy-phenyl)-4-propylamino-3-trifluoromethyl-benzamide]	0.032 µM	
COc1cccc(NC(=O)c2ccc(F)c(S(=O)(=O)N3CC(C)CC(C)C3)c2)c1 (racemic) [Example 167, (rac,meso)-3-(3,5-Dimethyl-piperidine-1-sulfonyl)-4-fluoro-N-(3-methoxy-phenyl)-benzamide]	0.004 µM	
COc1cccc(NC(=O)c2cnc(NCc3ccccc3)c(C(F)(F)F)c2)c1 [Example 199]		0.0056 µM
COc1cccc(NC(=O)c2ccc(F)c([N+](=O)[O-])c2)c1 [Example 85, 4-Fluoro-N-(3-methoxy-phenyl)-3-nitro-benzamide]	0.09 µM	
Cc1cccc(C(=O)Nc2ccc(Cl)c(Cl)c2)c1 [Example 220, N-(3,4-Dichloro-phenyl)-3-methyl-benzamide]	0.068 µM	
O=C(Nc1cccc(Cl)c1)c1ccc(Cl)c(Cl)c1 [Example 218, 3,3′,4-Trichlorobenzanilide]	0.06 µM	
CCNc1ccc(C(=O)Nc2cccc(OC)c2)cc1C(F)(F)F [Example 148, 4-Ethylamino-N-(3-methoxy-phenyl)-3-trifluoromethyl-benzamide]	0.022 µM	
O=C(Nc1cccc(Cl)c1)c1ccc(N2CCCC2)c(C(F)(F)F)c1 [Example 186, N-(3-Chloro-phenyl)-4-pyrrolidin-1-yl-3-trifluoro-methyl-benzamide]		0.02 µM
COc1cccc(NC(=O)c2cnc(Cl)c(Cl)c2)c1 [Example 78, 5,6-Dichloro-N-(3-methoxy-phenyl)-nicotinamide]	0.048 µM	
O=C(Nc1ccccc1)c1ccc(Cl)c(Cl)c1 [Example 217, 3,4-Dichloro-N-phenyl-benzamide]	0.054 µM	
O=C(Nc1cccc(OC(F)(F)C(F)F)c1)c1ccc(N2CCCC2)c(C(F)(F)F)c1 [Example 192, 4-Pyrrolidin-1-yl-N-[3-(1,1,2,2-tetrafluoro-ethoxy)-phenyl]-3-trifluoro-methyl-benzamide]	0.039 µM	
CNc1ncc(C(=O)Nc2cccc(Cl)c2)cc1Cl [Example 151, 5-Chloro-N-(3-chloro-phenyl)-6-methylamino-nicotinamide]	0.096 µM	
COc1cccc(NC(=O)c2cnc(N3CCCC3)c(Cl)c2)c1 [Example 205]	0.0101 µM	

SMILES	Ki [1]	Ki (Ki value (μM) in mouse)
O=C(Nc1cccc(Cl)c1)c1cnc(Cl)c(Cl)c1 [Example 47, 5,6-Dichloro-N-(3-chloro-phenyl)-nicotinamide]	0.079 µM	
COc1cccc(NC(=O)c2ccc(Cl)c(C(F)(F)F)c2)c1 [Example 216, 4-Chloro-N-(3-methoxy-phenyl)-3-trifluoromethyl-benzamide]	0.0058 µM	
COc1cccc(NC(=O)c2ccc(N3CCC(C)CC3)c([N+](=O)[O-])c2)c1 [Example 27, N-(3-Methoxy-phenyl)-4-(4-methyl-piperidin-1-yl)-3-nitro-benzamide]	0.002 µM	
CCOc1cccc(NC(=O)c2ccc(N3CCCC3)c(C(F)(F)F)c2)c1 [Example 181, N-(3-Ethoxy-phenyl)-4-pyrrolidin-1-yl-3-trifluoro-methyl-benzamide]	0.001 µM	
CCNc1ncc(C(=O)Nc2cccc(Cl)c2)cc1Cl [Example 156, 5-Chloro-N-(3-chloro-phenyl)-6-ethylamino-nicotinamide]	0.039 µM	
COc1cccc(NC(=O)c2cnc(N3CCCCC3)c(Cl)c2)c1 [Example 206]		0.0207 µM
COc1cccc(NC(=O)c2ccc(N3CC(C)CC(C)C3)c(C(F)(F)F)c2)c1 (racemic) [Example 194, (rac,meso)-4-(3,5-Dimethyl-piperidin-1-yl)-N-(3-methoxy-phenyl)-3-trifluoromethyl-benzamide]	0.007 µM	
COc1cccc(NC(=O)c2ccc(NCc3ccccc3)c([N+](=O)[O-])c2)c1 [Example 88, 4-Benzylamino-N-(3-methoxy-phenyl)-3-nitro-benzamide]	0.005 µM	
COCCNc1ncc(C(=O)Nc2cccc(Cl)c2)cc1Cl [Example 153, 5-Chloro-N-(3-chloro-phenyl)-6-(2-methoxy-ethylamino)-nicotinamide]	0.035 µM	
CCCNc1ccc(C(=O)Nc2cccc(OC)c2)cc1[N+](=O)[O-] [Example 87, N-(3-Methoxy-phenyl)-3-nitro-4-propylamino-benzamide]	0.004 µM	
COc1cccc(NC(=O)c2ccc(Br)c([N+](=O)[O-])c2)c1 [Example 42, 4-Bromo-N-(3-methoxy-phenyl)-3-nitro-benzamide]	0.021 µM	
Cc1cccc(NC(=O)c2ccc(N3CCCC3)c(C(F)(F)F)c2)c1 [Example 189, 4-Pyrrolidin-1-yl-N-m-tolyl-3-trifluoro-methyl-benzamide]	0.016 µM	
COc1cccc(NC(=O)c2cnc(NC(C)C)c(C(F)(F)F)c2)c1 [Example 200]		0.0597 µM
CCCCNc1ccc(C(=O)Nc2cccc(OC)c2)cc1C(F)(F)F [Example 145, 4-Butylamino-N-(3-methoxy-phenyl)-3-trifluoromethyl-benzamide]		0.01 µM
COc1cccc(NC(=O)c2ccc(N3CCCCC3)c([N+](=O)[O-])c2)c1 [Example 94, N-(3-Methoxy-phenyl)-3-nitro-4-piperidin-1-yl-benzamide]	0.012 µM	
CCCNc1ncc(C(=O)Nc2cccc(Cl)c2)cc1Cl [Example 157, 5-Chloro-N-(3-chloro-phenyl)-6-propylamino-nicotinamide]		0.011 µM
O=C(Nc1cccc(Cl)c1)c1cnc(N2CCNCC2)c(Cl)c1 [Example 210, 5-Chloro-N-(3-chloro-phenyl)-6-piperazin-1-yl-nicotinamide]	0.0348 µM	
COc1cccc(NC(=O)c2ccc(Cl)c([N+](=O)[O-])c2)c1 [Example 12, 4-Chloro-N-(3-methoxy-phenyl)-3-nitro-benzamide]	0.037 µM	
O=C(Nc1cccc(Cl)c1)c1cnc(N2CCCCC2)c(Cl)c1 [Example 163, 3′-Chloro-3,4,5,6-tetrahydro-2H-[1,2′]bipyridinyl-5′-carboxylicacid (3-chloro-phenyl)-amide]	0.038 µM	
O=C(Nc1cccc(OC(F)F)c1)c1ccc(N2CCCC2)c(C(F)(F)F)c1 [Example 190, N-(3-Difluoro-methoxy-phenyl)-4-pyrrolidin-1-yl-3-trifluoro-methyl-benzamide]	0.012 µM	
COCCNc1ccc(C(=O)Nc2cccc(OC)c2)cc1C(F)(F)F [Example 139, 4-(2-Methoxy-ethylamino)-N-(3-methoxy-phenyl)-3-trifluoromethyl-benzamide]	0.077 µM	
